IC50 and Activity data for six compounds are collected here from ChEMBL document CHEMBL1140042, “A 4-aminobenzoic acid derivative as novel lead for selective inhibitors of multidrug resistance-associated proteins” (Bioorg Med Chem Lett, 2008).

Data set [1] concerns the target ATP-dependent translocase ABCB1 (Homo sapiens, UniProt P08183). The data set can be described thus: Inhibition of P-gp in human A2780 cells. It counts as cell-based. Particulars: for Activity: human, a2780; call rule not given here.
Data set [2] concerns the target ATP-binding cassette sub-family C member 2 (Homo sapiens, UniProt Q92887). In words: Inhibition of human MRP2 expressed in dog MDCK2 cells. The class given is cell-based, MDCK-II. The conditions noted are these: for Activity: human, mdck-ii.
The target in data set [3] is Multidrug resistance-associated protein 1 (Homo sapiens, UniProt P33527). The data set can be described thus: Inhibition of human MRP1 in human 2008 cells assessed as increase in calcein-AM accumulation. The class given is cell-based.
Sequence of Multidrug resistance-associated protein 1 (P33527 whole entry): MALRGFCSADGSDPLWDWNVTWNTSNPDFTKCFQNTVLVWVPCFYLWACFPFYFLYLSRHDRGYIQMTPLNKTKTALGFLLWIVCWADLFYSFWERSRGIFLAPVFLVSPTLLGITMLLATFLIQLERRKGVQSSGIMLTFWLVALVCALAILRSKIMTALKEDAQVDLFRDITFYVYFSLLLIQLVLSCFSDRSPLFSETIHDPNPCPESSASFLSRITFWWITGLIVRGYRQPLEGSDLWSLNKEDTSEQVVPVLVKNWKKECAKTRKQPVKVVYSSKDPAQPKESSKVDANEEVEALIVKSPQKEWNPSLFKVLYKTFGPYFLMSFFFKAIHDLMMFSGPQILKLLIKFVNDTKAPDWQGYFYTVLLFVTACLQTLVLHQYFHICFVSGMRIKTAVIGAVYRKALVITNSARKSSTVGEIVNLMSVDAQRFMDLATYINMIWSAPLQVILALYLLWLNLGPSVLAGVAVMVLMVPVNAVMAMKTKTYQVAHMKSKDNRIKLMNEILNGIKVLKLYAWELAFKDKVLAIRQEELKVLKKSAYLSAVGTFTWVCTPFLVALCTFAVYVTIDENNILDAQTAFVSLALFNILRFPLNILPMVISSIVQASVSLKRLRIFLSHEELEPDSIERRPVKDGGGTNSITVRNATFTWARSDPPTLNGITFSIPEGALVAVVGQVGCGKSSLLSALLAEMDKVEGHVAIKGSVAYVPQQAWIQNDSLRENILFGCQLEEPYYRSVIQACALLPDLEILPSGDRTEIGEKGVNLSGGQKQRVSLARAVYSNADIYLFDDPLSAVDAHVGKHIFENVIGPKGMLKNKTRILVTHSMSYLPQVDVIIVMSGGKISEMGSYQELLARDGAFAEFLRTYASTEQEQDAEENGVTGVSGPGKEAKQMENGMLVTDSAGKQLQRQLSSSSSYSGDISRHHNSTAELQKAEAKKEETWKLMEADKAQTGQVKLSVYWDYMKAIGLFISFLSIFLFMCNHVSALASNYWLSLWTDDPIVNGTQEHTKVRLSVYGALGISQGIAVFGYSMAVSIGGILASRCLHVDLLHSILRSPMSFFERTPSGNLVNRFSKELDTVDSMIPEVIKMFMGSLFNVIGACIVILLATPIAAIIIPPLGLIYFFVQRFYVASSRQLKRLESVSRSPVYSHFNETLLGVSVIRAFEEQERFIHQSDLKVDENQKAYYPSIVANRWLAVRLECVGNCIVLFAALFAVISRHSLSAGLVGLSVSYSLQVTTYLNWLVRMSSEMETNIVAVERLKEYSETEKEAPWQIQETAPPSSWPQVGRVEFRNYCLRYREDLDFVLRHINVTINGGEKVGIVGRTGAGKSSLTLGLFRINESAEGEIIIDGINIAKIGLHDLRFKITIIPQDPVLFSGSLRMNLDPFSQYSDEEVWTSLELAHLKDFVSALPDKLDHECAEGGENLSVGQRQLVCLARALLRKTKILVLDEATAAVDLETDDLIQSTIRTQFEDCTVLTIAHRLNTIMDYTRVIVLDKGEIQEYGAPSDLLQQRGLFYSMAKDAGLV

Sequence of ATP-dependent translocase ABCB1 (P08183 whole entry): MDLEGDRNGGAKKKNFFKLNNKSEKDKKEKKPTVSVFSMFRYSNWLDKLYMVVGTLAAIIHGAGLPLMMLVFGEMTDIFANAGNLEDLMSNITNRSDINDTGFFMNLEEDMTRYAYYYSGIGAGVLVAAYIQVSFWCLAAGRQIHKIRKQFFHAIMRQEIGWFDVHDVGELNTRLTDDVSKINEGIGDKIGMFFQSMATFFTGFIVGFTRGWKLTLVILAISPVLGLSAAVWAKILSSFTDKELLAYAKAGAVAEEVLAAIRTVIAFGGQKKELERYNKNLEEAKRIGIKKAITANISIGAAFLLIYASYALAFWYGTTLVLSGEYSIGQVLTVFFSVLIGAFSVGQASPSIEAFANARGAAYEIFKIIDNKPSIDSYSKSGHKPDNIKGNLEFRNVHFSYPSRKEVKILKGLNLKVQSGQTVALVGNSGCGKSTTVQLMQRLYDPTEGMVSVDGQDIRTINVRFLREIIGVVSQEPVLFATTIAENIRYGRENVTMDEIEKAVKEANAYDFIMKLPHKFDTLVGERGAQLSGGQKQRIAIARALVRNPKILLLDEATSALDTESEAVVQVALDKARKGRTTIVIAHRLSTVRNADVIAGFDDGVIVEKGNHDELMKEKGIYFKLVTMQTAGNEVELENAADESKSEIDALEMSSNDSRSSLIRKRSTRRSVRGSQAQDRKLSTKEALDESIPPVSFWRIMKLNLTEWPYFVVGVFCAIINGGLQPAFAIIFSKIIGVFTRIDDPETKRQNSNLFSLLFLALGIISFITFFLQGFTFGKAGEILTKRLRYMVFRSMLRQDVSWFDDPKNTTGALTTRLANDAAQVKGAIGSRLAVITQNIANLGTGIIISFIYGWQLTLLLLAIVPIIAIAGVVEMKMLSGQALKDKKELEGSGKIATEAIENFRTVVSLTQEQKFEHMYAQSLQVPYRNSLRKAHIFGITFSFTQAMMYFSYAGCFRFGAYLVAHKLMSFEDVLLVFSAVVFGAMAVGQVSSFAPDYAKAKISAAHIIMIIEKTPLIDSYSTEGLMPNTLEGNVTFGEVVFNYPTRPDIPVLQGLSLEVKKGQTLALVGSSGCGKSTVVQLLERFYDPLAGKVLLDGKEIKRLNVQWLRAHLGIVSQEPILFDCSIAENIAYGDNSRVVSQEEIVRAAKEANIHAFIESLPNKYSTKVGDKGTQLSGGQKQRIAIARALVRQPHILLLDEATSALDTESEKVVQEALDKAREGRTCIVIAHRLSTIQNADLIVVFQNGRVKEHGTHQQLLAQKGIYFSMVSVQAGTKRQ
Sequence of ATP-binding cassette sub-family C member 2 (Q92887 whole entry): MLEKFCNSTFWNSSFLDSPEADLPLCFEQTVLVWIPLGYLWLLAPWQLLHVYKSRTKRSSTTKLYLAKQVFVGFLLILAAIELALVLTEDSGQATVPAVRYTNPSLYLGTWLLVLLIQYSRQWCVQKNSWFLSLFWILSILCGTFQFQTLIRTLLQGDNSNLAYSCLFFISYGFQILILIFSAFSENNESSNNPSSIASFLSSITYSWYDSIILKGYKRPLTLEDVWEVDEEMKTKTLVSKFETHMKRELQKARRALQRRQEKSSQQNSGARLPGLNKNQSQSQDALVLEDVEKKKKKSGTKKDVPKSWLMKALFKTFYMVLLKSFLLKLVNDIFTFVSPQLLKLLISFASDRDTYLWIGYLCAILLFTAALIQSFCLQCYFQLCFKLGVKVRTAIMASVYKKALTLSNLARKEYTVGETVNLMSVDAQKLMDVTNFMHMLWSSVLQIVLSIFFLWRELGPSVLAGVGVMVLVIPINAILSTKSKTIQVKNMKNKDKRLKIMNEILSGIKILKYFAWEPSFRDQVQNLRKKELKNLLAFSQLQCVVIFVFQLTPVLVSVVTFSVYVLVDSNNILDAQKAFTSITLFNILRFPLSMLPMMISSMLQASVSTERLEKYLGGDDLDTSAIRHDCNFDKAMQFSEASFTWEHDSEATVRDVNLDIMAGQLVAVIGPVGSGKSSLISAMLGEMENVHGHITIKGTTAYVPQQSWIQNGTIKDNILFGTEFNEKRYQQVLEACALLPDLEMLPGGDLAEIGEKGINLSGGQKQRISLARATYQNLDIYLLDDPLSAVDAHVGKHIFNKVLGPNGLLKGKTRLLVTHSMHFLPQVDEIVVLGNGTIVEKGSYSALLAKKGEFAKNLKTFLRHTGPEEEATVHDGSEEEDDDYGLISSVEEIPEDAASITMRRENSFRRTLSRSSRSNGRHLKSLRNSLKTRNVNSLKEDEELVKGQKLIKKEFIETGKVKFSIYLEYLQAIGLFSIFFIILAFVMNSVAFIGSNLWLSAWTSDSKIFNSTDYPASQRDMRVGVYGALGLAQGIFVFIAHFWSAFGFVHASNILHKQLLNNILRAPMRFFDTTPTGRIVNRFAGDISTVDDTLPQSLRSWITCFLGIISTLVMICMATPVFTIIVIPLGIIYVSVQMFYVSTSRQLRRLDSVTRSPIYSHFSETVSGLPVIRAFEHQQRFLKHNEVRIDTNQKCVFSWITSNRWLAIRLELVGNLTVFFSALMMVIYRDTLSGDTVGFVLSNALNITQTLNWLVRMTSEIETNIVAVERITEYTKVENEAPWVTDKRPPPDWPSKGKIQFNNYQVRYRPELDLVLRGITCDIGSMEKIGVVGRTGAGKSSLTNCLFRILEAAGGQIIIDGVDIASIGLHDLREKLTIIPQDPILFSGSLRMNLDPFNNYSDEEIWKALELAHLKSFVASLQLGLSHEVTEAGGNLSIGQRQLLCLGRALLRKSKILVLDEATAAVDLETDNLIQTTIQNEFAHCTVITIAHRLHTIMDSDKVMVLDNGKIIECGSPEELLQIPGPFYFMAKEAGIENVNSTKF

Turning to `Nc1nc2sc3c(c2c(=O)s1)CCCC3`, the IC50 in data set [1] was over 200 µM. Besides, the Activity entry in data set [2] is reported as “Not Active”.
Consider `CCOC(=O)c1c(NC(=S)Nc2ccc(C(=O)O)cc2)sc2c1CCCC2`, for which the Activity result in data set [1] is reported as “Not Active”. Also, in data set [2], the IC50 is over 200 µM.
As for `O=C(Nc1nc2sc3c(c2c(=O)s1)CCCC3)c1ccccc1`, the Activity entry in data set [1] and in data set [2] was “Not Active” throughout.
As for `O=C(O)c1ccc(Nc2nc3sc4c(c3c(=O)s2)CCCC4)cc1`, the Activity entry in data set [1] was “Not Active”; in data set [3], “Active”. Also, in data set [2], the IC50 is 21.5 µM.
`CN(C)C(=O)CCSC(SCCC(=O)[O-])c1cccc(/C=C/c2ccc3ccc(Cl)cc3n2)c1.[Na+]` (stereo not drawn): in data set [1], the Activity result is “Not Active”. In data set [2], this compound showed an IC50 of 20.7 µM.
The matching figures for `COc1ccc2c(c1)c(CC(=O)O)c(C)n2C(=O)c1ccc(Cl)cc1` [INDOMETHACIN]: “Not Active” and 235 µM.

By IC50 is commonly meant the point on the concentration scale where inhibition reaches its midpoint. Lower therefore signals higher potency.
